Data taken from US20240336657A1, “G-ALPHA-S PEPTIDE INHIBITORS AND USES THEREOF” (The Regents of the University of California, priority 2021, published 2024).
Positions of bridges follow the written chain, without caps; N, C: chain ends. Non-standard residues stand in square brackets, D forms with d. Residues, ends and D or L forms follow the SMILES beside them.

Columns and labels:
Gαs = Gαs (Homo sapiens, UniProt P63092); experiment: GDP dissociation assay ([3H]GDP); format: biochemical; design: made in house; host or cells: Escherichia coli BL21(DE3)
Protocol: Gα proteins were diluted to 400 nM in the EDTA buffer (20 mM HEPES 7.5, 150 mM NaCl, 1 mM EDTA-Na 8.0, 2 mM DTT). [^3H]GDP (1 mCi/mL, 25.2 μM) was added to a final concentration of 1.2 μM, followed by cyclic peptides addition. After incubation at 20° C. for 30 minutes, the same volume of assay buffer ([…] HEPES-Na 7.5, 150 mM NaCl, 2 mM MgCl2, and 1 mM GDP) was added to initiate [^3H]GDP dissociation. At various points, […] was removed and mixed with 390 μL of ice-cold wash buffer (20 mM HEPES 7.5, 150 mM NaCl, 20 mM MgCl2). The mixture was immediately filtered through a mixed cellulose membrane (25 mm, 0.22 μm) held by a microanalysis filter holder (EMD Millipore). The membrane was washed by ice-cold wash buffer (500 μL×3), put in a 6-mL plastic vial and air-dried (room temperature 1.5 h). 5 mL of CytoScint-ES Liquid Scintillation Cocktail was added to each vial. After incubation overnight at room temperature, the vial was used for liquid scintillation counting with a LS 6500 Multi-Purpose Scintillation Counter.
The GDP dissociation curves were fitted by the software GraphPad Prism using the following equation to calculate the dissociation rates (koff): […]
in which “Y” is the radioactivity (Counts per minute) of the sample at time “X” (minutes), and Y0 is the calculated radioactivity of the sample at the time point 0.

Gαs S275L = Gαs S275L (Homo sapiens, UniProt P63092, S275L); experiment: Adenylyl cyclase activation assay in the presence of Gβ1/γ2; format: biochemical; design: made in house; host or cells: Escherichia coli BL21(DE3) (Gαs, VC1, IIC2); Sf9 insect cells (Gβ1/Gγ2); settings: 6.25 μM of GN13
Protocol: GN13 inhibition of Gαs proteins at various concentrations (FIG. 18E).
WT Gαs and S275L mutant at a concentration of 8.5 mg/mL (about 190 μM) in 20 mM HEPES 8.0, 150 mM NaCl, 5 mM MgCl2, 1 mM EDTA-Na 8.0 were diluted to a series of concentrations (4 μM, 1.33 μM, 0.44 μM, 0.15 μM, 49.4 nM, 16.5 nM, 5.5 nM, 0 nM) in dilution buffer (1×PBS 7.4, 0.1% BSA, 1 mM EDTA-Na 8.0, 2 mM DTT, 0.1 mM MgCl2) plus 1 mM GppNHp. After incubation at room temperature for 1 hour to allow nucleotide exchange, 2.5 μL of each sample was then mixed with 1 μL of MgCl2 stock (20 mM MgCl2, 1× PBS 7.4, 0.1% BSA) in an OptiPlate-384, White Opaque 384-well Microplate. 2 μL of adenylyl cyclase/Gβγ stock (2 μM VC1, 2 nM IIC2, 150 μM FSK, 1× PBS 7.4, 0.1% BSA, 10 μM Gβ1/γ2(C68S)) was added, followed by addition of 2.5 μL 25 μM GN13 stock in 1× PBS 7.4, 0.1% BSA. […] The cAMP concentrations were measured by the LANCE Ultra cAMP kit. […]
A cAMP standard curve was generated in the same plate using the 50 μM cAMP standard in the kit. […] 10 μL of each diluted sample was mixed with 5 μL of 4× Eu-cAMP tracer and 5 μL of 4× ULight-anti-cAMP in a white, opaque Optiplate-384 microplate, incubated for 1 hour at room temperature, and the time-resolved fluorescence resonance energy transfer (TR-FRET) signals were read on a Spark 20M plate reader. […]

GppNHp-bound Gαs = GppNHp-bound Gαs (Homo sapiens, UniProt P63092); experiment: Bio-layer interferometry (BLI) binding kinetics; design: hexahistidine (N, cleaved yes); made in house; host or cells: Escherichia coli BL21(DE3)
Protocol: BLI experiments were performed using an OctetRED384 instrument from ForteBio. All experiments were performed at 25° C. using BLI buffer (10 mM HEPES pH 7.4, 150 mM NaCl, 1 mM MgCl2, 0.05% Tween-20, 0.1% DMSO, 0.2 mM GppNHp or GDP). Cyclic peptides were diluted to a series of concentrations in BLI buffer plus 10 μM Biotin. Assays were conducted in Greiner 384well, black, flat bottom polypropylene plates containing the protein solutions, BLI buffer plus 10 μM Biotin for dissociation, and serial dilutions of cyclic peptides to be tested.
Biotinylated proteins were immobilized on Streptavidin biosensors by dipping sensors into plate wells containing protein solutions at a concentration of 100-150 nM. Protein loading is around 2-3 nm. Sensors loaded with proteins were moved and dipped into wells with BLI buffer plus 10 μM Biotin to block unlabeled Streptavidin. Association-dissociation cycles of compounds were started by moving and dipping sensors to cyclic peptides dilutions and BLI buffer plus 10 μM Biotin wells alternatively. Association and dissociation times were carefully determined to ensure full association and dissociation.
Raw kinetic data collected were processed with the Data Analysis software provided by the manufacturer using single reference subtraction in which buffer-only reference was subtracted (For GN13 analysis). Because GD20 analogs have a low level of background binding, we used a double reference subtraction (buffer-only reference and non-protein-loading reference) method to calculate their kinetics values. The resulting data were analyzed based on a 1:1 binding model from which kon and koff values were obtained and then Kd values were calculated.

Sequence of Gαs (P63092 1-380 isoform P63092-2): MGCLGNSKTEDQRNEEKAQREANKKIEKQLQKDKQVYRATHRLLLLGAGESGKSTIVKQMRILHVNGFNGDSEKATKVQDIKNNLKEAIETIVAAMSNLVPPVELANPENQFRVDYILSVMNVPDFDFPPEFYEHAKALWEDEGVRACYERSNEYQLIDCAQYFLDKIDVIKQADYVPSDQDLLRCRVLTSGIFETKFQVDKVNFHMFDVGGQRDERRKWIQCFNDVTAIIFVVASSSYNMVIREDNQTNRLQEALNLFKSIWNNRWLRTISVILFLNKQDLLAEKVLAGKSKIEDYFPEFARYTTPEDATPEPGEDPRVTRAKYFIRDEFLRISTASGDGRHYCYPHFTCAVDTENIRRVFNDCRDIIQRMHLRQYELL
Sequence of Gαs S275L (P63092 7-380 isoform P63092-2 S261L limits assumed): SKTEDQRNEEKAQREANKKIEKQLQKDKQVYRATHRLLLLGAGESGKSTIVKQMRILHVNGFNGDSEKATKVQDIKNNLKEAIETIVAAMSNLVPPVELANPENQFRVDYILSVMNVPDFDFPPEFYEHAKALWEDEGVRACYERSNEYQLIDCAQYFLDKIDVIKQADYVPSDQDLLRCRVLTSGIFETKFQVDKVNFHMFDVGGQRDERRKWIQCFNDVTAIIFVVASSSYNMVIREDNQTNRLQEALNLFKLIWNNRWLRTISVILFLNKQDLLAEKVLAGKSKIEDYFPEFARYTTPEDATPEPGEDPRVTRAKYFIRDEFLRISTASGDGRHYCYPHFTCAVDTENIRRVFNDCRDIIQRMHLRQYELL

**Q.** `CC[C@H](C)[C@@H]1NC(=O)[C@H](C)NC(=O)[C@H](Cc2ccc(O)cc2)NC(=O)[C@H](C(C)C)NC(=O)[C@H](CO)NC(=O)[C@H](CCC(=O)O)NC(=O)[C@H](Cc2ccccc2)NC(=O)[C@@H](Cc2ccc(O)cc2)NC(=O)CSC[C@@H](C(=O)NCC(N)=O)NC(=O)[C@H](CC(C)C)NC(=O)[C@H]([C@@H](C)O)NC(=O)CNC(=O)[C@H](Cc2c[nH]c3ccccc23)NC1=O` [GN13] ({CH2CO}-[dY]FESVYAIWGTLCG-NH2; thioether N-13) was tested. Which “effect on Gαs GDP dissociation rates (koff)” value (Gαs) did it give?
**A.** only slightly influenced

**Q.** What about the “inhibition of adenylyl cyclase activation by Gαs S275L” value (Gαs S275L) of the same molecule?
**A.** resistant to GN13 inhibition

**Q.** And the koff (GppNHp-bound Gαs; GppNHp/Gαs)?
**A.** 0.0513 s⁻¹

**Q.** What about the kon (GppNHp-bound Gαs; GppNHp/Gαs) of the same molecule?
**A.** 271000 M⁻¹ s⁻¹

**Q.** And the Kd (GppNHp-bound Gαs; immobilized GppNHp-bound Gαs)?
**A.** 190 ± 20 nM
